Laboratory results reported in patent US8278345B2, “Inhibitors of glutaminyl cyclase” (Probiodrug AG, priority 2006, dated 2012).
pIC50: −log10 of the molar value.

Target: hQC (Homo sapiens, UniProt Q16769)
Experiment: Inhibitor assay for glutaminyl cyclase activity (fluorometric, H-Gln-βNA / H-Gln-AMC)
Format: biochemical
Details: compound from preparative synthesis, purified; read-out: IC50 hQC
Method in brief: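 Coupled fluorometric assay at 30 °C with pyroglutamyl aminopeptidase, in Tris/HCl pH 8.0 with EDTA, substrate H-Gln-βNA (0.2 mM; ex/em 320/410 nm) or H-Gln-AMC (ex/em 380/460 nm), initiated by QC. Screening: 4 mM inhibitor, substrate at 1 KM; Ki from progress curves fitted to competitive inhibition.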

hQC, sequence (Q16769 29-361): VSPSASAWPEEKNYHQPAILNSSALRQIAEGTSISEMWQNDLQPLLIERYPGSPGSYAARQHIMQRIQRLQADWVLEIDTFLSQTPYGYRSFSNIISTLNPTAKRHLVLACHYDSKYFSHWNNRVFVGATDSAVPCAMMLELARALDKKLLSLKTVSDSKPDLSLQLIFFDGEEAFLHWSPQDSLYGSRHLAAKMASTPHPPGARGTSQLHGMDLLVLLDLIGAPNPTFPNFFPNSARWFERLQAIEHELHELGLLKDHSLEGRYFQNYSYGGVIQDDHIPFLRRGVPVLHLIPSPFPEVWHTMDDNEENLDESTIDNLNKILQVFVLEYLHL

| pIC50 | Compound |
| --- | --- |
| 5.71 | O=C1C(O)=C(c2ccccc2)C(c2cccc(O)c2)N1CCCn1ccnc1 (stereo not drawn) [Compound 112, 3-Hydroxy-5-(3-hydroxy-phenyl)-1-(3-imidazol-1-yl-propyl)-4-phenyl-1,5-dihydro-pyrrol-2-one] |
| 6.69 | CCCC(=O)C1=C(O)C(=O)N(c2ccc3[nH]cnc3c2)C1c1ccc(C)o1 (stereo not drawn) [Compound 256, 1-(1H-Benzoimidazol-5-yl)-4-butyryl-3-hydroxy-5-(5-methyl-furan-2-yl)-1,5-dihydro-pyrrol-2-one] |

Same assay, conditions: read-out: IC50

| Compound | pIC50 |
| --- | --- |
| O=C1C(O)=C(c2c[nH]c3ccccc23)C(c2ncc[nH]2)N1CCCn1ccnc1 (stereo not drawn) [Compound 133, 3-Hydroxy-5-(1H-imidazol-2-yl)-1-(3-imidazol-1-yl-propyl)-4-(1H-indol-3-yl)-1,5-dihydro-pyrrol-2-one] | 5.89 |
| CC(=O)C1=C(O)C(=O)N(c2ccc3[nH]cnc3c2)C1c1nccs1 (stereo not drawn) [Compound 349, 4-Acetyl-1-(1H-benzoimidazol-5-yl)-3-hydroxy-5-thiazol-2-yl-1,5-dihydro-pyrrol-2-one] | 5.99 |
| O=C(C1=C(O)C(=O)N(c2ccc3[nH]cnc3c2)C1c1ccnc2ccccc12)C1CCCCC1 (stereo not drawn) [Compound 293, 1-(1H-Benzoimidazol-5-yl)-4-cyclohexanecarbonyl-3-hydroxy-5-quinolin-4-yl-1,5-dihydro-pyrrol-2-one] | 6.66 |
| Cc1ccc(C2C(C(C)C)=C(O)C(=O)N2CCCn2ccnc2)cc1C (stereo not drawn) [Compound 61, 5-(3,4-Dimethyl-phenyl)-3-hydroxy-1-(3-imidazol-1-yl-propyl)-4-isopropyl-1,5-dihydro-pyrrol-2-one] | 6.40 |
| O=C1C(O)=C(c2c[nH]c3ccccc23)C(c2cccc(O)c2)N1CCCn1ccnc1 (stereo not drawn) [Compound 146, 3-Hydroxy-5-(3-hydroxy-phenyl)-1-(3-imidazol-1-yl-propyl)-4-(1H-indol-3-yl)-1,5-dihydro-pyrrol-2-one] | 6.40 |
| O=C1C(O)=C(c2ccccc2)C(C(O)CO)N1CCCn1ccnc1 (stereo not drawn) [Compound 82, 5-(1,2-Dihydroxy-ethyl)-3-hydroxy-1-(3-imidazol-1-yl-propyl)-4-phenyl-1,5-dihydro-pyrrol-2-one] | 5.51 |
| O=C1C(O)=C(c2ccccc2)C(c2ccc(O)cc2)N1CCCn1ccnc1 (stereo not drawn) [Compound 111, 3-Hydroxy-5-(4-hydroxy-phenyl)-1-(3-imidazol-1-yl-propyl)-4-phenyl-1,5-dihydro-pyrrol-2-one] | 6.40 |
| O=C1C(O)=C(c2ccccc2)C(c2cccc(O)c2)N1CCCn1ccnc1 (stereo not drawn) [Compound 112, 3-Hydroxy-5-(3-hydroxy-phenyl)-1-(3-imidazol-1-yl-propyl)-4-phenyl-1,5-dihydro-pyrrol-2-one] | 6.40 |
| CCCC(=O)C1=C(O)C(=O)N(c2ccc3[nH]cnc3c2)C1c1ccc(O)c(Br)c1 (stereo not drawn) [Compound 344, 1-(1H-Benzoimidazol-5-yl)-5-(3-bromo-4-hydroxy-phenyl)-4-butyryl-3-hydroxy-1,5-dihydro-pyrrol-2-one] | 6.40 |
| CCC1=C(O)C(=O)N(CCCn2ccnc2)C1c1ccccc1O (stereo not drawn) [Compound 230, 4-Ethyl-3-hydroxy-5-(2-hydroxy-phenyl)-1-(3-imidazol-1-yl-propyl)-1,5-dihydro-pyrrol-2-one] | 7.40 |
| O=C1C(O)=C(c2ccccc2)C(c2ccc(Cl)c(Cl)c2)N1c1ccc2[nH]cnc2c1 (stereo not drawn) [Compound 264, 1-(1H-Benzoimidazol-5-yl)-5-(3,4-dichloro-phenyl)-3-hydroxy-4-phenyl-1,5-dihydro-pyrrol-2-one] | 5.80 |
| O=C1C(O)=C(c2ccccc2)C(c2ccc(CO)o2)N1CCCn1ccnc1 (stereo not drawn) [Compound 91, 3-Hydroxy-5-(5-hydroxymethyl-furan-2-yl)-1-(3-imidazol-1-yl-propyl)-4-phenyl-1,5-dihydro-pyrrol-2-one] | 5.89 |
| CCCC(=O)C1=C(O)C(=O)N(c2ccc3[nH]cnc3c2)C1c1ccc(C)o1 (stereo not drawn) [Compound 256, 1-(1H-Benzoimidazol-5-yl)-4-butyryl-3-hydroxy-5-(5-methyl-furan-2-yl)-1,5-dihydro-pyrrol-2-one] | 8.40 |
| O=C(O)CCC1C(C(=O)C2CCCCC2)=C(O)C(=O)N1c1ccc2[nH]cnc2c1 (stereo not drawn) [Compound 361, 3-[1-(1H-Benzoimidazol-5-yl)-3-cyclohexanecarbonyl-4-hydroxy-5-oxo-2,5-dihydro-1H-pyrrol-2-yl]-propionic acid] | 5.05 |
| CCCC(=O)C1=C(O)C(=O)N(c2ccc3[nH]cnc3c2)C1c1cc[nH]n1 (stereo not drawn) [Compound 378, 1-(1H-Benzoimidazol-5-yl)-4-butyryl-3-hydroxy-5-(1H-pyrazol-3-yl)-1,5-dihydro-pyrrol-2-one] | 5.40 |
| CC(C)(C)C(=O)C1=C(O)C(=O)N(c2ccc3[nH]cnc3c2)C1c1ccco1 (stereo not drawn) [Compound 419, 1-(1H-Benzoimidazol-5-yl)-4-(2,2-dimethyl-propionyl)-5-furan-2-yl-3-hydroxy-1,5-dihydro-pyrrol-2-one] | 5.39 |
| CC1=C(O)C(=O)N(CCCn2ccnc2)C1C1=CCCCC1 (stereo not drawn) [Compound 36, 5-Cyclohex-1-enyl-3-hydroxy-1-(3-imidazol-1-yl-propyl)-4-methyl-1,5-dihydro-pyrrol-2-one] | 5.66 |
| O=C1C(O)=C(c2ccccc2)C(c2ccc(Cl)c(C(F)(F)F)c2)N1c1ccc2[nH]cnc2c1 (stereo not drawn) [Compound 305, 1-(1H-Benzoimidazol-5-yl)-5-(4-chloro-3-trifluoromethyl-phenyl)-3-hydroxy-4-phenyl-1,5-dihydro-pyrrol-2-one] | 5.76 |
| CC(=O)C1=C(O)C(=O)N(c2ccc3[nH]cnc3c2)C1c1cccc(C)c1 (stereo not drawn) [Compound 283, 4-Acetyl-1-(1H-benzoimidazol-5-yl)-3-hydroxy-5-m-tolyl-1,5-dihydro-pyrrol-2-one] | 6.40 |
| O=C1C(O)=C(c2ccccc2)C(C(F)(F)F)N1CCCn1ccnc1 (stereo not drawn) [Compound 96, 3-Hydroxy-1-(3-imidazol-1-yl-propyl)-4-phenyl-5-trifluoromethyl-1,5-dihydro-pyrrol-2-one] | 6.40 |
| O=C(C1=C(O)C(=O)N(c2ccc3[nH]cnc3c2)C1c1cccc(F)c1)C1CC1 (stereo not drawn) [Compound 370, 1-(1H-Benzoimidazol-5-yl)-4-cyclopropanecarbonyl-5-(3-fluoro-phenyl)-3-hydroxy-1,5-dihydro-pyrrol-2-one] | 5.11 |
| CCC1=C(O)C(=O)N(CCCn2ccnc2)C1c1ccc2[nH]ccc2c1 (stereo not drawn) [Compound 228, 4-Ethyl-3-hydroxy-1-(3-imidazol-1-yl-propyl)-5-(1H-indol-5-yl)-1,5-dihydro-pyrrol-2-one] | 7.40 |
| CC(=O)C1=C(O)C(=O)N(c2ccc3[nH]cnc3c2)C1c1ccc(CO)o1 (stereo not drawn) [Compound 352, 4-Acetyl-1-(1H-benzoimidazol-5-yl)-3-hydroxy-5-(5-hydroxymethyl-furan-2-yl)-1,5-dihydro-pyrrol-2-one] | 8.40 |
| O=C1C(O)=C(c2ccccc2)C(c2cc(Cl)cc(Cl)c2O)N1CCCn1ccnc1 (stereo not drawn) [Compound 76, 5-(3,5-Dichloro-2-hydroxy-phenyl)-3-hydroxy-1-(3-imidazol-1-yl-propyl)-4-phenyl-1,5-dihydro-pyrrol-2-one] | 7.40 |
| O=C(O)CC1=C(O)C(=O)N(c2ccc3[nH]cnc3c2)C1c1cccc(F)c1 (stereo not drawn) [Compound 311, [1-(1H-Benzoimidazol-5-yl)-2-(3-fluoro-phenyl)-4-hydroxy-5-oxo-2,5-dihydro-1H-pyrrol-3-yl]-acetic acid] | 5.34 |
| O=C1C(O)=C(c2c[nH]c3ccccc23)C(c2cccs2)N1CCCn1ccnc1 (stereo not drawn) [Compound 137, 3-Hydroxy-1-(3-imidazol-1-yl-propyl)-4-(1H-indol-3-yl)-5-thiophen-2-yl-1,5-dihydro-pyrrol-2-one] | 6.40 |

More lines, in order of rising pIC50, values ahead:

| pIC50 | Compound |
| --- | --- |
| 5.02 | CC(=O)C1=C(O)C(=O)N(c2ccc3[nH]cnc3c2)C1C1CC=CCC1 (stereo not drawn) [Compound 375, 4-Acetyl-1-(1H-benzoimidazol-5-yl)-5-cyclohex-3-enyl-3-hydroxy-1,5-dihydro-pyrrol-2-one] |
| 5.04 | CC1=C(O)C(=O)N(c2ccc3[nH]cnc3c2)C1c1cc(C)c(C)o1 (stereo not drawn) [Compound 394, 1-(1H-Benzoimidazol-5-yl)-5-(4,5-dimethyl-furan-2-yl)-3-hydroxy-4-methyl-1,5-dihydro-pyrrol-2-one] |
| 5.24 | CCCC1C(C(C)C)=C(O)C(=O)N1CCCn1ccnc1 (stereo not drawn) [Compound 55, 3-Hydroxy-1-(3-imidazol-1-yl-propyl)-4-isopropyl-5-propyl-1,5-dihydro-pyrrol-2-one] |
| 5.31 | CC(C)C1=C(O)C(=O)N(CCCn2ccnc2)C1c1cccc(O)c1 (stereo not drawn) [Compound 75, 3-Hydroxy-5-(3-hydroxy-phenyl)-1-(3-imidazol-1-yl-propyl)-4-isopropyl-1,5-dihydro-pyrrol-2-one] |
| 5.51 | O=C1C(O)=C(c2ccccc2)C(c2ccccc2O)N1CCCn1ccnc1 (stereo not drawn) [Compound 87, 3-Hydroxy-5-(2-hydroxy-phenyl)-1-(3-imidazol-1-yl-propyl)-4-phenyl-1,5-dihydro-pyrrol-2-one] |
| 5.52 | O=C(C1=C(O)C(=O)N(c2ccc3[nH]cnc3c2)C1c1ccnc2ccccc12)C1CC1 (stereo not drawn) [Compound 296, 1-(1H-Benzoimidazol-5-yl)-4-cyclopropanecarbonyl-3-hydroxy-5-quinolin-4-yl-1,5-dihydro-pyrrol-2-one] |
| 5.89 | O=C1C(O)=C(c2ccc(O)cc2)C(C2=CCCCC2)N1CCCn1ccnc1 (stereo not drawn) [Compound 164, 5-Cyclohex-1-enyl-3-hydroxy-4-(4-hydroxy-phenyl)-1-(3-imidazol-1-yl-propyl)-1,5-dihydro-pyrrol-2-one] |
| 5.89 | O=C1C(O)=C(c2cccc(O)c2)C(C2CC2)N1CCCn1ccnc1 (stereo not drawn) [Compound 19, 5-Cyclopropyl-3-hydroxy-4-(3-hydroxy-phenyl)-1-(3-imidazol-1-yl-propyl)-1,5-dihydro-pyrrol-2-one] |
| 5.89 | O=C1C(O)=C(c2ccc(O)cc2)C(c2c(O)ccc3ccccc23)N1CCCn1ccnc1 (stereo not drawn) [Compound 170, 3-Hydroxy-5-(2-hydroxy-naphthalen-1-yl)-4-(4-hydroxy-phenyl)-1-(3-imidazol-1-yl-propyl)-1,5-dihydro-pyrrol-2-one] |
| 6.12 | Cc1ccc(C2C(C(=O)c3cccs3)=C(O)C(=O)N2c2ccc3[nH]cnc3c2)o1 (stereo not drawn) [Compound 321, 1-(1H-Benzoimidazol-5-yl)-3-hydroxy-5-(5-methyl-furan-2-yl)-4-(thiophene-2-carbonyl)-1,5-dihydro-pyrrol-2-one] |
| 6.24 | Cc1cccc(C2C(C(=O)C3CC3)=C(O)C(=O)N2c2ccc3[nH]cnc3c2)n1 (stereo not drawn) [Compound 316, 1-(1H-Benzoimidazol-5-yl)-4-cyclopropanecarbonyl-3-hydroxy-5-(6-methyl-pyridin-2-yl)-1,5-dihydro-pyrrol-2-one] |
